Experiments:
[1] = target: T1, serotonin transporter (SERT) (Homo sapiens, UniProt P31645); experiment: Substrate uptake inhibition in HEK-SERT cells; type: cell-based; details: human SERT expressed in HEK293, substrate uptake
T1 construct: expressed in transfected cells; host or cells: HEK293 (HEK-SERT)
Method: (§1) The human isoforms of DAT, SERT and NET were expressed in HEK293 (HEK-DAT, HEK-SERT and HEK-NET) cells. DAT inhibitors-mediated monoamine transporter effects on substrate uptake were analyzed according to procedure described by Sitte et al. In brief, cells were grown in poly-d-lysine coated 96-well plates, incubated with compounds diluted in Krebs-Ringer-HEPES buffer, substrates were subsequently added, cells were lysed with 1% SDS (sodium dodecyl sulphate) and released radioactivity was measure by a liquid scintillation counter (23).
(§2) EC50-values for the dopamine transporter (DAT), the norepinephrine transporter (NET) and the serotonin transporter (SERT) were obtained: […]

[2] = target: T2, dopamine transporter (DAT) (Homo sapiens, UniProt Q01959); experiment: Substrate uptake inhibition in HEK-DAT cells; type: cell-based; details: for inhibition of DAT and selectivity against SERT and NET: verbal summary of EC50 values
T2 construct: expressed in transfected cells; host or cells: HEK293 (HEK-DAT)
T2 sequence (Q01959 whole entry): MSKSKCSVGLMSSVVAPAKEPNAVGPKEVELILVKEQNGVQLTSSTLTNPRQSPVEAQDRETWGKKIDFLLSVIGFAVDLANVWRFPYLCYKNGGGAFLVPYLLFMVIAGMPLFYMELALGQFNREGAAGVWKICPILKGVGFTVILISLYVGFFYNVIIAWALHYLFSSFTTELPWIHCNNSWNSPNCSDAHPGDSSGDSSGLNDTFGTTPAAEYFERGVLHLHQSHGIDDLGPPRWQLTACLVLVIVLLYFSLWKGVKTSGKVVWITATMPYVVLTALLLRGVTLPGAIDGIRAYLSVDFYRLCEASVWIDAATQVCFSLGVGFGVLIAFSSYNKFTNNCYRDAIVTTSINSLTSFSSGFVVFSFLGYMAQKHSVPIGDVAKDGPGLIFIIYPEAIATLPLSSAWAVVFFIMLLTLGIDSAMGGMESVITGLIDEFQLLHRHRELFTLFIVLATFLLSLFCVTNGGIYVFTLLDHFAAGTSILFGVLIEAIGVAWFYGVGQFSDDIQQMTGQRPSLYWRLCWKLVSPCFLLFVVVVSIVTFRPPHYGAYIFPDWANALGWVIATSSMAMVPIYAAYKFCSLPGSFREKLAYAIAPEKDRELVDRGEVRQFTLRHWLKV
Method: as §1, §2

[3] = target: T3, norepinephrine transporter (NET) (Homo sapiens, UniProt P23975); experiment: Substrate uptake inhibition in HEK-NET cells; type: cell-based; details: human NET expressed in HEK293, substrate uptake
T3 construct: expressed in transfected cells; host or cells: HEK293 (HEK-NET)
T3 sequence (P23975 whole entry): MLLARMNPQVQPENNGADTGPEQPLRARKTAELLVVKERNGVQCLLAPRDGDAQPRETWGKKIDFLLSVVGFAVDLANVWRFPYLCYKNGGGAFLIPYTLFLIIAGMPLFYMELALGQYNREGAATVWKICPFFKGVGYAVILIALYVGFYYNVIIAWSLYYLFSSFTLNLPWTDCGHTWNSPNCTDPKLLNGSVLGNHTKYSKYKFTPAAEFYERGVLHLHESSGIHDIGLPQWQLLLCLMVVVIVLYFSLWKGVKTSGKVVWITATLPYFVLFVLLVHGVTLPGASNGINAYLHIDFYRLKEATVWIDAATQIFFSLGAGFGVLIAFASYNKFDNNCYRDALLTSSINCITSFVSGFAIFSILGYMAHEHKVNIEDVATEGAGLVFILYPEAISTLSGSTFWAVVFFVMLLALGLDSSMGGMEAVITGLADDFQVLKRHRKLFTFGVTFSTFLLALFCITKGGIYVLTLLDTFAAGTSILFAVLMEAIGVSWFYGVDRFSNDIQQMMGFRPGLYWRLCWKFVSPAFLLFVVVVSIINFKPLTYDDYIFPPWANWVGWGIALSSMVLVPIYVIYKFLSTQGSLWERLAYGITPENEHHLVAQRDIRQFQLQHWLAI
Method: as §1, §2

Male Sprague Dawley rats = experiment: 12 arm radial arm maze (RAM), working memory errors; type: in vivo, rat; details: versus DMSO-injected counterparts
Text: One such animal model is the radial arm maze using rats and is given in detail in Timofeva O. et al., Brain Res. 1308 (2010) 147-152: Wenk G. et al.; The Journal of Neuroscience (2004) 8.5A.1-8.5A.12; Akoto M. et al.; The Journal of Neuroscience (2000)20 (189: 7116-7121: Levin E D et al.; Behavioral Brain Res. 208 (2010) 319-327. Li-Bo Z. et al.; Neuropharmacology 37, 1998) 323-330. Roegge, C S. et al.; Toxicological Sciences 57, 121-30 (2000).
Male Sprague Dawley rats were used for the studies aged between 12-14 weeks. Twelve rats per group were used for this study. All rats were obtained from Core Unit of Biomedical Research, Division of Laboratory Animal Science and Genetics, Medical University of Vienna and maintained in cages made of makrolon and filled with autoclaved woodchips and water in bottles was available ad libitum. The room was illuminated with artificial light at an intensity of about 200 lx in 2 m from 5 am to 7 pm. Radial arm maze (RAM) training was performed between 8:00 h and 13:00 h. […]
Before starting the training, rats were given two habituation sessions in which food was placed all over the maze and rats were allowed to explore the maze and consume the food for 5 minutes. […] An arm was baited only once and a repeated entry into a baited arm was counted as a working memory error, whereas any entry into an un-baited arm was recorded as a reference memory error. […]

T1 sequence (P31645 whole entry): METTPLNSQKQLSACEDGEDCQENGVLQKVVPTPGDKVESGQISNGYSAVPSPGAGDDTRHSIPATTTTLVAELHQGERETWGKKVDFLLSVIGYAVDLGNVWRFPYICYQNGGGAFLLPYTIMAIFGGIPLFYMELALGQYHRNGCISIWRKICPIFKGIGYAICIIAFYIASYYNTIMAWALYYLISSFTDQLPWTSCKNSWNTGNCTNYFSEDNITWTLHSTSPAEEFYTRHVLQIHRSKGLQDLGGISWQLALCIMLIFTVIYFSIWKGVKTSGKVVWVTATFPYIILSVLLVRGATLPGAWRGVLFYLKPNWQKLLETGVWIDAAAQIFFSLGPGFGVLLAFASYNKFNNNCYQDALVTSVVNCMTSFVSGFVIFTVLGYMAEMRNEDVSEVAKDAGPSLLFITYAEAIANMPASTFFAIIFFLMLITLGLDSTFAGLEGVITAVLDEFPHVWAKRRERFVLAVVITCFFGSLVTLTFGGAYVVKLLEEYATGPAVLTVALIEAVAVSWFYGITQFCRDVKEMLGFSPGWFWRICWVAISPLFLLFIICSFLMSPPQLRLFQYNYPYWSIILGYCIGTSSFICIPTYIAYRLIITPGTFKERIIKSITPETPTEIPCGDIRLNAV

SMILES | melting point [°C] | EC50 [1] [µM] | EC50 [2] [µM] | inhibition of DAT and selectivity against SERT and NET [2] | EC50 [3] [µM] | performance in RAM training from day eight (working memory errors) (Male Sprague Dawley rats; day eight to ten, p<0.05) | performance in RAM training up to day seven (Male Sprague Dawley rats; up to day seven)
Cc1csc(C[S+]([O-])C(c2ccccc2)c2ccccc2)n1 (stereo not drawn) | 104 to 107 |  |  |  |  |  | 
[O-][S+](Cc1csc(C2CC2)n1)C(c1ccccc1)c1ccccc1 (stereo not drawn) [4-(diphenylmethanesulfinylmethyl)-2-cyclopropyl-1,3-thiazole] |  | 436 | 4.1 | excellent inhibition and selectivity against SERT and NET | 774 |  | 
[O-][S+](Cc1cscn1)C(c1ccccc1)c1ccccc1 (stereo not drawn) [4-(diphenylmethanesulfinylmethyl)-1,3-thiazole] |  | 456 | 7.3 | excellent inhibition and selectivity against SERT and NET | 547 |  | 
[O-][S+](Cc1nccs1)C(c1ccccc1)c1ccccc1 (stereo not drawn) [C1, 2-(diphenylmethanesulfinylmethyl}-1,3-thiazole] | 119 to 122 |  |  |  |  | performed better | comparable level

Source: patent publication US10221147B2, “Heterocyclic compounds with working memory enhancing activity” (Red Bull GmbH, priority 2014, dated 2019)
